Laboratory results taken from patent US20030165854A1, “Marker genes responding to treatment with toxins” (priority 2000, published 2003).

Assays:
[1] = test system: rat liver cDNAs SEQ ID NOs: 1-61; assay type: in vivo, Han/Wistar rat; conditions: Strain HW
[2] = test system: rat liver cDNAs SEQ ID NOs: 62-202; test: Abundance of cDNA clones in toxin-treated rat liver cDNA libraries (transcript imaging), Sprague-Dawley; assay type: in vivo; conditions: Strain SD
Experimental: Columns 1 and 2 show the SEQ ID NO and Clone ID of the rat cDNA clone, respectively.
Abundance of a clone was determined by counting the number of clones present in a master cluster.
Abundance of a particular cDNA in the library profile was determined by summing the total number of copies of the clones present in the master cluster in that library.

[3] = test system: rat liver cDNAs SEQ ID NOs: 1-61; assay type: in vivo, Han/Wistar rat; conditions: Strain HW, Sex F

ClC(Cl)(Cl)Cl [CCI4, carbon tetrachloride]
7: Maximum Abundance, SEQ ID NO 26, Clone ID 700132557 [1] | Maximum Abundance, SEQ ID NO 33, Clone ID 700175249 [1]
5: Maximum Abundance, SEQ ID NO 19, Clone ID 700062240 [1] | Maximum Abundance, SEQ ID NO 49, Clone ID 700478138 [1] | Maximum Abundance, SEQ ID NO 53, Clone ID 700818852 [1]
8: Maximum Abundance, SEQ ID NO 31, Clone ID 700140450 [1] | Maximum Abundance, SEQ ID NO 54, Clone ID 700937735 [1]
4: Maximum Abundance, SEQ ID NO 18, Clone ID 700060675 [1] | Maximum Abundance, SEQ ID NO 27, Clone ID 700135733 [1] | Maximum Abundance, SEQ ID NO 29, Clone ID 700137416 [1] | Maximum Abundance, SEQ ID NO 32, Clone ID 700144406 [1] | Maximum Abundance, SEQ ID NO 40, Clone ID 700230123 [1] | Maximum Abundance, SEQ ID NO 45, Clone ID 700305380 [1] | Maximum Abundance, SEQ ID NO 61, Clone ID 701637512 [1]
3: Maximum Abundance, SEQ ID NO 16, Clone ID 700024834 [1] | Maximum Abundance, SEQ ID NO 23, Clone ID 700067778 [1] | Maximum Abundance, SEQ ID NO 24, Clone ID 700123633 [1] | Maximum Abundance, SEQ ID NO 25, Clone ID 700127949 [1] | Maximum Abundance, SEQ ID NO 28, Clone ID 700135850 [1] | Maximum Abundance, SEQ ID NO 30, Clone ID 700140375 [1] | Maximum Abundance, SEQ ID NO 34, Clone ID 700177158 [1] | Maximum Abundance, SEQ ID NO 36, Clone ID 700181614 [1] | Maximum Abundance, SEQ ID NO 37, Clone ID 700182016 [1] | Maximum Abundance, SEQ ID NO 38, Clone ID 700185871 [1] | Maximum Abundance, SEQ ID NO 39, Clone ID 700198357 [1] | Maximum Abundance, SEQ ID NO 41, Clone ID 700248367 [1] | Maximum Abundance, SEQ ID NO 42, Clone ID 700250877 [1] | Maximum Abundance, SEQ ID NO 43, Clone ID 700253694 [1] | Maximum Abundance, SEQ ID NO 44, Clone ID 700303850 [1] | Maximum Abundance, SEQ ID NO 46, Clone ID 700313077 [1] | Maximum Abundance, SEQ ID NO 47, Clone ID 700361225 [1] | Maximum Abundance, SEQ ID NO 48, Clone ID 700363174 [1] | Maximum Abundance, SEQ ID NO 50, Clone ID 700480077 [1] | Maximum Abundance, SEQ ID NO 52, Clone ID 700491990 [1] | Maximum Abundance, SEQ ID NO 56, Clone ID 701257766 [1] | Maximum Abundance, SEQ ID NO 58, Clone ID 701574951 [1] | Maximum Abundance, SEQ ID NO 59, Clone ID 701578278 [1] | Maximum Abundance, SEQ ID NO 60, Clone ID 701597659 [1] | Maximum Abundance, SEQ ID NO 14, Clone ID 700330824 ([1]; Sex F)

c1ccc2c(c1)cc1ccc3cccc4ccc2c1c34 [benzo(a)pyrene]
11: Maximum Abundance, SEQ ID NO 109, Clone ID 700250903 ([2]; Sex M)
10: Maximum Abundance, SEQ ID NO 85, Clone ID 700302152 [2]
7: Maximum Abundance, SEQ ID NO 74, Clone ID 700137978 ([2]; Sex F)
6: Maximum Abundance, SEQ ID NO 7, Clone ID 700250279 [1] | Maximum Abundance, SEQ ID NO 9, Clone ID 700308908 [1] | Maximum Abundance, SEQ ID NO 91, Clone ID 700363445 [2] | Maximum Abundance, SEQ ID NO 186, Clone ID 700068662 [2]
1: Maximum Abundance, SEQ ID NO 193, Clone ID 700858043 ([2]; Sex F)
3: Maximum Abundance, SEQ ID NO 76, Clone ID 700059750 [2] | Maximum Abundance, SEQ ID NO 77, Clone ID 700123903 [2] | Maximum Abundance, SEQ ID NO 78, Clone ID 700135554 [2] | Maximum Abundance, SEQ ID NO 82, Clone ID 700185570 [2] | Maximum Abundance, SEQ ID NO 83, Clone ID 700244879 [2] | Maximum Abundance, SEQ ID NO 87, Clone ID 700307329 [2] | Maximum Abundance, SEQ ID NO 90, Clone ID 700330391 [2] | Maximum Abundance, SEQ ID NO 92, Clone ID 700480903 [2] | Maximum Abundance, SEQ ID NO 93, Clone ID 700482908 [2] | Maximum Abundance, SEQ ID NO 94, Clone ID 700935261 [2] | Maximum Abundance, SEQ ID NO 95, Clone ID 700939101 [2] | Maximum Abundance, SEQ ID NO 96, Clone ID 700950626 [2] | Maximum Abundance, SEQ ID NO 97, Clone ID 701316308 [2] | Maximum Abundance, SEQ ID NO 98, Clone ID 701316810 [2] | Maximum Abundance, SEQ ID NO 99, Clone ID 701327688 [2] | Maximum Abundance, SEQ ID NO 100, Clone ID 701337820 [2] | Maximum Abundance, SEQ ID NO 102, Clone ID 701432317 [2] | Maximum Abundance, SEQ ID NO 103, Clone ID 701472012 [2] | Maximum Abundance, SEQ ID NO 104, Clone ID 701472036 [2] | Maximum Abundance, SEQ ID NO 105, Clone ID 701517108 [2] | Maximum Abundance, SEQ ID NO 107, Clone ID 701241446 [2] | Maximum Abundance, SEQ ID NO 201, Clone ID 700062503 [2] | Maximum Abundance, SEQ ID NO 191, Clone ID 700146747 ([2]; Sex F) | Maximum Abundance, SEQ ID NO 197, Clone ID 700124248 ([2]; Sex M) | Maximum Abundance, SEQ ID NO 200, Clone ID 700282789 ([2]; Sex M)
2: Maximum Abundance, SEQ ID NO 188, Clone ID 700024288 ([2]; Sex F) | Maximum Abundance, SEQ ID NO 190, Clone ID 700066933 ([2]; Sex F) | Maximum Abundance, SEQ ID NO 196, Clone ID 700062747 ([2]; Sex M)
4: Maximum Abundance, SEQ ID NO 6, Clone ID 700062791 [1] | Maximum Abundance, SEQ ID NO 8, Clone ID 700312413 [1] | Maximum Abundance, SEQ ID NO 79, Clone ID 700175783 [2] | Maximum Abundance, SEQ ID NO 80, Clone ID 700176825 [2] | Maximum Abundance, SEQ ID NO 81, Clone ID 700177142 [2] | Maximum Abundance, SEQ ID NO 84, Clone ID 700246085 [2] | Maximum Abundance, SEQ ID NO 88, Clone ID 700323326 [2] | Maximum Abundance, SEQ ID NO 89, Clone ID 700328990 [2] | Maximum Abundance, SEQ ID NO 101, Clone ID 701432276 [2] | Maximum Abundance, SEQ ID NO 106, Clone ID 701710808 [2] | Maximum Abundance, SEQ ID NO 111, Clone ID 700269330 [2] | Maximum Abundance, SEQ ID NO 202, Clone ID 700490891 [2] | Maximum Abundance, SEQ ID NO 75, Clone ID 701709967 ([2]; Sex F)
13: Maximum Abundance, SEQ ID NO 86, Clone ID 700305538 [2]
5: Maximum Abundance, SEQ ID NO 108, Clone ID 701711993 [2] | Maximum Abundance, SEQ ID NO 110, Clone ID 700192259 [2] | Maximum Abundance, SEQ ID NO 112, Clone ID 701317696 [2] | Maximum Abundance, SEQ ID NO 187, Clone ID 700933309 [2]

CC(C)OC(=O)C(C)(C)Oc1ccc(C(=O)c2ccc(Cl)cc2)cc1 [Feno, fenofibrate]
4: Maximum Abundance, SEQ ID NO 40, Clone ID 700230123 [1] | Maximum Abundance, SEQ ID NO 45, Clone ID 700305380 [1] | Maximum Abundance, SEQ ID NO 13, Clone ID 700135749 [3]
5: Maximum Abundance, SEQ ID NO 49, Clone ID 700478138 [1] | Maximum Abundance, SEQ ID NO 53, Clone ID 700818852 [1]
3: Maximum Abundance, SEQ ID NO 20, Clone ID 700063569 [1] | Maximum Abundance, SEQ ID NO 30, Clone ID 700140375 [1] | Maximum Abundance, SEQ ID NO 35, Clone ID 700179766 [1] | Maximum Abundance, SEQ ID NO 37, Clone ID 700182016 [1] | Maximum Abundance, SEQ ID NO 38, Clone ID 700185871 [1] | Maximum Abundance, SEQ ID NO 39, Clone ID 700198357 [1] | Maximum Abundance, SEQ ID NO 42, Clone ID 700250877 [1] | Maximum Abundance, SEQ ID NO 55, Clone ID 701197728 [1] | Maximum Abundance, SEQ ID NO 60, Clone ID 701597659 [1]
8: Maximum Abundance, SEQ ID NO 31, Clone ID 700140450 [1] | Maximum Abundance, SEQ ID NO 54, Clone ID 700937735 [1]
